The source made the active and inactive calls. No cut-off for these calls is given here.
Tests used:
RAW264.7 [1] = experiment: Inhibition of NO production in LPS-stimulated mouse RAW264.7 cells at 50 uM preincubated for 15 mins followed by LPS stimulation and measured after 20 hrs by Griess reagent based assay relative to control; assay type: functional; conditions: RAW264.7, 20.25 h, time 1215 min
RAW264.7 [2] = experiment: Inhibition of NO production in LPS-stimulated mouse RAW264.7 cells preincubated for 15 mins followed by LPS stimulation and measured after 20 hrs by Griess reagent based assay; assay type: functional, cell-based
[3] = Cytotoxicity against LPS-stimulated mouse RAW264.7 cells assessed as cell survival at 50 uM preincubated for 15 mins followed by LPS stimulation and measured after 20 hrs by CCK-8 assay relative to control; assay type: toxicity, cell-based; conditions: LPS-stimulated RAW264.7 cells, time 1215 min, read-out: Activity
[4] = Antiinflammatory activity in human 293/NFkB-Luc cells assessed as inhibition of TNF-alpha induced NFkaapaB activity at 50 uM preincubated for 15 mins followed by TNF-alpha induction and measured after 6 hrs by luminescence based assay relative to control; assay type: functional; conditions: 6.25 h, time 375 min
[5] = Cytotoxicity against TNF-alpha induced human 293/NFkB-Luc cells assessed as increase in cell survival at 50 uM preincubated for 15 mins followed by TNF-alpha induction and measured after 6 hrs by MTT assay relative to control; assay type: toxicity, cell-based; conditions: TNF-alpha induced 293/NFkB-Luc cells, time 375 min, read-out: Activity
RAW264.7 [6] = experiment: Antiinflammatory activity in mouse RAW264.7 cells assessed as inhibition of LPS-induced iNOS protein expression at 30 uM preincubated for 15 mins followed by LPS stimulation and measured after 24 hrs by Western blot analysis; assay type: functional, cell-based; conditions: time 1215.0 min
[7] = Cytotoxicity against LPS-stimulated mouse RAW264.7 cells assessed as cell growth inhibition preincubated for 15 mins followed by LPS stimulation and measured after 20 hrs by CCK-8 assay; assay type: toxicity, cell-based; conditions: LPS-stimulated RAW264.7 cells
[8] = Antiinflammatory activity in human 293/NFkB-Luc cells assessed as inhibition of TNF-alpha induced NFkaapaB activity preincubated for 15 mins followed by TNF-alpha induction and measured after 6 hrs by luminescence based assay; assay type: functional, cell-based
RAW264.7 [9] = experiment: Antiinflammatory activity in mouse RAW264.7 cells assessed as inhibition of LPS-induced […] at 10 to 30 uM preincubated for 15 mins followed by LPS stimulation and measured after 4 hrs by qPCR analysis; assay type: functional, cell-based; conditions: dose 10-30 µM, time 255.0 min

| Structure (SMILES) | inhibition at 50 µM (RAW264.7 [1]) [%] | IC50 (RAW264.7 [2]) [µM] | viability at 20 h, 50 µM [3] [%] | inhibition at 50 µM [4] [%] | viability at 6 h, 50 µM [5] [%] | Activity (RAW264.7 [6]) | IC50 at 20 h [7] [µM] | IC50 [8] [µM] | Activity (RAW264.7 [9]) |
| --- | --- | --- | --- | --- | --- | --- | --- | --- | --- |
| CCCCCCCC[C@H]1CCCc2[nH]c(C)c(OC)c(=O)c21 | 99.9 | 20.8 | 67.6 | < 50 | 90.8 |  |  |  |  |
| CNC(=N)NCCC[C@H](N)C(=O)O |  | 22.7 |  |  |  |  |  |  |  |
| CCCCCCCC[C@H]1CCC(=O)c2[nH]c(C)c(OC)c(=O)c21 | 97.4 | 16.1 | 63.5 | < 50 | 85.8 | Active |  |  |  |
| CCCCCCC[C@H](O)c1ccc(OC)c2[nH]c(C)c(OC)c(=O)c12 | 91.7 | 25.8 | 64.7 | < 50 | 75.6 |  |  |  |  |
| COc1c(C)n(OC)c2c(c1=O)[C@@H](CCCCCc1ccccc1)CCC2 | 99.7 | 11 | < 50 | 88.6 | 89 |  | 32.2 | 12.1 |  |
| CCCCCCCC[C@H]1CCC(=O)c2[nH]c(CO)c(OC)c(=O)c21 | 89.9 | 25.4 | 50.9 | < 50 | 93.1 |  |  |  |  |
| O=C1N/C=C\c2ccc(cc2)O[C@@H](c2ccccc2)[C@H](NC(=O)[C@@H]2CCCN2C(=O)/C=C/c2ccccc2)C(=O)N[C@H]1Cc1ccccc1 | 63.7 | 32 | 100 | < 50 | 76.6 |  |  |  |  |
| COc1c(C)[nH]c2c(c1=O)[C@@H](CCCCCc1ccc(O)cc1)CCC2=O | < 50 |  | 89.3 | < 50 | 80.5 |  |  |  |  |
| COc1c(C)[nH]c2c(c1=O)[C@@H](CCCCC(=O)c1ccccc1)CCC2=O | < 50 |  | 74.5 | < 50 | 82.2 |  |  |  |  |
| COc1c(C)[nH]c2c(c1=O)[C@H](CCCCCc1ccccc1)CCC2 | 99.1 | 12.8 | 61 | 81.6 | 91.8 |  |  | 10.1 |  |
| COc1c(C)[nH]c2c(c1=O)[C@@H](CCCCCc1ccccc1)CCC2 | 97.2 | 11.7 | 84.3 | < 50 | 77.2 | Active |  |  | Active |
| CCCCCCCC[C@H]1CC[C@@H](OC)c2[nH]c(C)c(OC)c(=O)c21 | 60.3 | 42.9 | 51.4 | < 50 | 90.3 |  |  |  |  |
| CC[C@H](C)[C@@H]1NC(=O)[C@H](NC(=O)/C=C/c2ccccc2)[C@H](c2ccccc2)Oc2ccc(cc2)/C=C\NC1=O | 58.5 | 43 | 100 | < 50 | 100 |  |  |  |  |
| CCCCCCC[C@@H](O)c1ccc(OC)c2[nH]c(C)c(OC)c(=O)c12 | 86.5 | 25.8 | 84.9 | < 50 | 72.6 |  |  |  |  |
| CCCCCCCCc1ccc(O)c2[nH]c(C)c(OC)c(=O)c12 | < 50 |  | 70.2 | < 50 | 83.6 |  |  |  |  |
| COc1c(C)[nH]c2c(OC)ccc(CCCCCCC(C)=O)c2c1=O | 63.8 | 35.6 | 86.5 | < 50 | 75.8 |  |  |  |  |

| Structure (SMILES) | inhibition at 50 µM (RAW264.7 [1]) [%] | IC50 (RAW264.7 [2]) [µM] | viability at 20 h, 50 µM [3] [%] | inhibition at 50 µM [4] [%] | viability at 6 h, 50 µM [5] [%] | Activity (RAW264.7 [6]) | IC50 at 20 h [7] [µM] | IC50 [8] [µM] | Activity (RAW264.7 [9]) |
| --- | --- | --- | --- | --- | --- | --- | --- | --- | --- |
| COc1ccc(OC)c([C@@]2(O)c3ccc4[nH]c(C)c(OC)c(=O)c4c3[C@@H]3CC[C@H]2O3)c1 | < 50 |  | 100 | < 50 | 74.5 |  |  |  |  |
| Cc1ccc(S(=O)(=O)/C=C/C#N)cc1 |  |  |  |  |  |  |  | 9.7 |  |
| COc1c(C)[nH]c2c(O)ccc(CCCCCc3ccccc3)c2c1=O | < 50 |  | 59.3 | < 50 | 83.5 |  |  |  |  |
| COc1c(C)[nH]c2c(c1=O)[C@@H](CCCCCc1ccccc1)CCC2=O | 59.7 | 40.7 | 67.5 | < 50 | 88.4 |  |  |  |  |
| COc1c(CO)[nH]c2c(c1=O)[C@@H](CCCCCc1ccccc1)CCC2=O | 79.1 | 31 | 50.8 | 71.1 | 100 |  |  | 11.9 |  |
| COc1ccccc1[C@]1(O)c2ccc3[nH]c(C)c(OC)c(=O)c3c2[C@@H]2CC[C@H]1O2 | < 50 |  | 100 | < 50 | 86.7 |  |  |  |  |
| COc1c(C)[nH]c2cccc(CCCCCc3ccccc3)c2c1=O | 97.9 | 11.4 | < 50 | 77.5 | 76.7 |  | 33.3 | 10.2 |  |
| COc1c(C)[nH]c2c(OC)ccc(C(=O)CCCCc3ccccc3)c2c1=O | < 50 |  | 82.8 | < 50 | 76.8 |  |  |  |  |
| COc1c(C)n(OC)c2c(c1=O)[C@@H](CCCCCc1ccc(O)cc1)CCC2 | 94.5 | 18.8 | < 50 | 85.4 | 85.3 |  | 25.9 | 10.3 |  |
| COc1ccccc1[C@@H]1c2ccc3[nH]c(C)c(OC)c(=O)c3c2[C@@H]2CC[C@H]1O2 | 56.3 | 38.8 | 100 | 84.5 | 79.6 |  |  | 7.2 |  |
| CCCCCCCC(=O)c1ccc(OC)c2[nH]c(C)c(OC)c(=O)c12 | < 50 |  | 69.9 | < 50 | 86.7 |  |  |  |  |
| COc1c(C)n(OC)c2c(c1=O)[C@@H](CCCCC(=O)c1ccccc1)CCC2 | < 50 |  | 73.2 | 97.9 | 82.7 |  |  | 8.9 |  |
| CC[C@@H](C)[C@@H]1NC(=O)[C@@H](NC(=O)[C@H](Cc2ccccc2)N(C)C)[C@@H](c2ccccc2)Oc2ccc(cc2)/C=C\NC1=O | < 50 |  | 94.8 | < 50 | 86.4 |  |  |  |  |
| COc1c(C)[nH]c2c(c1=O)[C@@H](CCCCCc1ccccc1)CC[C@H]2OC | < 50 |  | 57.2 | < 50 | 69.9 |  |  |  |  |
| COc1c(C)[nH]c2ccc3c(c2c1=O)[C@@H]1CCC[C@@]3(c2ccccc2)O1 | 58.7 | 35.7 | 100 | 78 | 89 |  |  | 7.1 |  |

From ChEMBL document CHEMBL5226392, “Anti-inflammatory Quinoline Alkaloids from the Roots of Waltheria indica” (J Nat Prod, 2023)
